Literature values, collected in PubChem BioAssay AID1259409 (Chemical Carcinogenesis Research Information System (CCRIS), 2018).

Tested on: rodent chemically induced tumor inhibition, incidence and multiplicity
Experiment: CCRIS tumor inhibitor studies
Conditions: Species: RAT

CN(C(=O)c1c(O)c2ccccc2n(C)c1=O)c1ccccc1
tumour outcome (control, treated, inhibition, significance) (Carcinogen: N-METHYL-N-NITROSOUREA, 684-93-5, Dose [Inhibitor]: 0, 25 MG/KG/D IN DRINKING WATER FOR 12 MO BEGINNING 1 WK POST CARCINOGEN DOSE (STUDY DURATION: 12 MO), Route [Inhibitor]: ORAL, Strain/Sex: LOBUND WISTAR/MALE, Target Tissue: Type of Lesion: SEMINAL VESICLE/PROSTATE: TUMOR, Dose [Carcinogen]: 30 MG/KG ONCE AT 90 D OF AGE, Promoter: TESTOSTERONE PROPIONATE, 57-85-2): 90%, 40%, 56%, not calculated

O=C(O)O
tumour outcome (control, treated, inhibition, significance) (Carcinogen: AZOXYMETHANE, 25843-45-2, Dose [Inhibitor]: 0, 2% IN DIET FOR 13 WK BEGINNING 36 WK POST LAST CARCINOGEN DOSE (STUDY DURATION: 49 WK), Route [Inhibitor]: ORAL, Strain/Sex: F344/MALE, Target Tissue: Type of Lesion: COLON: ADENOCARCINOMA, Dose [Carcinogen]: 12 MG/KG BW IN 0.9% SALINE TWICE, Promoter: CHOLIC ACID, 81-25-4): 26%, 31%, -19%, not significant
tumour outcome (control, treated, inhibition, significance) (Carcinogen: AZOXYMETHANE, 25843-45-2, Dose [Inhibitor]: 0, 2% IN DIET FOR 13 WK BEGINNING 36 WK POST LAST CARCINOGEN DOSE (STUDY DURATION: 49 WK), Route [Inhibitor]: ORAL, Strain/Sex: F344/MALE, Target Tissue: Type of Lesion: COLON: ADENOMA, Dose [Carcinogen]: 12 MG/KG BW IN 0.9% SALINE TWICE, Promoter: CHOLIC ACID, 81-25-4): 81%, 89%, -10%, not significant
tumour outcome (control, treated, inhibition, significance) (Carcinogen: AZOXYMETHANE, 25843-45-2, Dose [Inhibitor]: 0, 2% IN DIET FOR 13 WK BEGINNING 36 WK POST LAST CARCINOGEN DOSE (STUDY DURATION: 49 WK), Route [Inhibitor]: ORAL, Strain/Sex: F344/MALE, Target Tissue: Type of Lesion: SMALL INTESTINE: ADENOCARCINOMA, Dose [Carcinogen]: 12 MG/KG BW IN 0.9% SALINE TWICE, Promoter: CHOLIC ACID, 81-25-4): 23%, 14%, 39%, not significant
tumour outcome (control, treated, inhibition, significance) (Carcinogen: AZOXYMETHANE, 25843-45-2, Dose [Inhibitor]: 0, 2% IN DIET FOR 13 WK BEGINNING 36 WK POST LAST CARCINOGEN DOSE (STUDY DURATION: 49 WK), Route [Inhibitor]: ORAL, Strain/Sex: F344/MALE, Target Tissue: Type of Lesion: SMALL INTESTINE: ADENOMA, Dose [Carcinogen]: 12 MG/KG BW IN 0.9% SALINE TWICE, Promoter: CHOLIC ACID, 81-25-4): 17%, 14%, 18%, not significant
tumour outcome (control, treated, inhibition, significance) (Carcinogen: AZOXYMETHANE, 25843-45-2, Dose [Inhibitor]: 0, 2% IN DIET FOR 34 WK BEGINNING 1 WK POST LAST CARCINOGEN DOSE (STUDY DURATION: 49 WK), Route [Inhibitor]: ORAL, Strain/Sex: F344/MALE, Target Tissue: Type of Lesion: COLON: ADENOCARCINOMA, Dose [Carcinogen]: 12 MG/KG BW IN 0.9% SALINE TWICE, Promoter: CHOLIC ACID, 81-25-4): 26%, 18%, 31%, not significant
tumour outcome (control, treated, inhibition, significance) (Carcinogen: AZOXYMETHANE, 25843-45-2, Dose [Inhibitor]: 0, 2% IN DIET FOR 34 WK BEGINNING 1 WK POST LAST CARCINOGEN DOSE (STUDY DURATION: 49 WK), Route [Inhibitor]: ORAL, Strain/Sex: F344/MALE, Target Tissue: Type of Lesion: COLON: ADENOMA, Dose [Carcinogen]: 12 MG/KG BW IN 0.9% SALINE TWICE, Promoter: CHOLIC ACID, 81-25-4): 81%, 59%, 27%, p<0.05
tumour outcome (control, treated, inhibition, significance) (Carcinogen: AZOXYMETHANE, 25843-45-2, Dose [Inhibitor]: 0, 2% IN DIET FOR 34 WK BEGINNING 1 WK POST LAST CARCINOGEN DOSE (STUDY DURATION: 49 WK), Route [Inhibitor]: ORAL, Strain/Sex: F344/MALE, Target Tissue: Type of Lesion: SMALL INTESTINE: ADENOCARCINOMA, Dose [Carcinogen]: 12 MG/KG BW IN 0.9% SALINE TWICE, Promoter: CHOLIC ACID, 81-25-4): 23%, 16%, 30%, not significant
tumour outcome (control, treated, inhibition, significance) (Carcinogen: AZOXYMETHANE, 25843-45-2, Dose [Inhibitor]: 0, 2% IN DIET FOR 34 WK BEGINNING 1 WK POST LAST CARCINOGEN DOSE (STUDY DURATION: 49 WK), Route [Inhibitor]: ORAL, Strain/Sex: F344/MALE, Target Tissue: Type of Lesion: SMALL INTESTINE: ADENOMA, Dose [Carcinogen]: 12 MG/KG BW IN 0.9% SALINE TWICE, Promoter: CHOLIC ACID, 81-25-4): 17%, 7%, 59%, not significant
tumour outcome (control, treated, inhibition, significance) (Carcinogen: N-BUTYL-N-(4-HYDROXYBUTYL)NITROSAMINE, 3817-11-6, Dose [Inhibitor]: 5% DIET DAILY FOR 34 WK STARTING AFTER CARCINOGEN TREATMENT (STUDY DURATION: 38 WK), Route [Inhibitor]: ORAL, Strain/Sex: F344/MALE, Target Tissue: Type of Lesion: URINARY BLADDER: PAPILLOMA, Dose [Carcinogen]: 0.01% IN DRINKING WATER FOR 4 WK, Promoter: NONE USED): 33%, 37%, -12%, not significant
tumour outcome (control, treated, inhibition, significance) (Carcinogen: N-METHYL-N'-NITRO-N-NITROSOGUANIDINE, 70-25-7, Dose [Inhibitor]: 0, 7.5% IN DIET FOR FIRST 20 WK THEN BASAL DIET FOR DURATION OF STUDY (STUDY DURATION: 40 WK), Route [Inhibitor]: ORAL, Strain/Sex: WISTAR/MALE, Target Tissue: Type of Lesion: GLANDULAR STOMACH: ADENOCARCINOMA, Dose [Carcinogen]: 100 MG/L IN DRINKING WATER FOR FIRST 20 WK, Promoter: NONE USED): 3/20 (15%), 3/19 (16%), -7%, not significant
tumour outcome (control, treated, inhibition, significance) (Carcinogen: N-NITROSOMETHYLBENZYLAMINE, 937-40-6, Dose [Inhibitor]: 0, 20000 PPM IN DIET FOR DURATION OF STUDY BEGINNING 1 WK POST CARCINOGEN TREATMENT (STUDY DURATION: 25 WK), Route [Inhibitor]: ORAL, Strain/Sex: F344/MALE, Target Tissue: Type of Lesion: ESOPHAGUS: TUMOR, Dose [Carcinogen]: 1 MG/KG 3/WK FOR 5 WK, Promoter: NONE USED): 15/15 (100%), 14/15 (93%), 7%, not significant
tumour outcome (control, treated, inhibition, significance) (Carcinogen: N-NITROSOMETHYLBENZYLAMINE, 937-40-6, Dose [Inhibitor]: 0, 20000 PPM IN DIET FOR DURATION OF STUDY BEGINNING 2 WK PRIOR TO CARCINOGEN TREATMENT (STUDY DURATION: 25 WK), Route [Inhibitor]: ORAL, Strain/Sex: F344/MALE, Target Tissue: Type of Lesion: ESOPHAGUS: TUMOR, Dose [Carcinogen]: 1 MG/KG 3/WK FOR 5 WK, Promoter: NONE USED): 15/15 (100%), 13/15 (87%), 13%, not significant
tumour outcome (control, treated, inhibition, significance) (Dose [Inhibitor]: 0, 6.2 MG, 2 INJECTIONS ONCE INTO EACH POLE OF RIGHT KIDNEY ADMINISTERED WITH CARCINOGEN (STUDY DURATION: 109 WK), Route [Inhibitor]: INTRARENAL, Strain/Sex: F344/NCR/MALE, Target Tissue: Type of Lesion: KIDNEY: TUMOR, Dose [Carcinogen]: 5 MG, 2 INJECTIONS ONCE INTO EACH POLE OF RIGHT KIDNEY, Promoter: NONE USED): 25/40 (63%), 4/20 (20%), 68%, not calculated
tumour outcome (control, treated, inhibition, significance) (Dose [Inhibitor]: 0, 7.5 UMOL (MG) INJECTED WITH CARCINOGEN INTO THIGH OF BOTH HIND LIMBS (STUDY DURATION: 79 WK), Route [Inhibitor]: INTRAMUSCULAR, Strain/Sex: F344/MALE, Target Tissue: Type of Lesion: INJECTION SITE: SARCOMA, Dose [Carcinogen]: 2.5 MG PER SITE INJECTED INTO THIGH OF BOTH HIND LIMBS ONCE, Promoter: NONE USED): 100%, 100%, 0%, not significant
tumour outcome (control, treated, inhibition, significance) (Dose [Inhibitor]: 0, 15.5 UMOL (MG) INJECTED WITH CARCINOGEN INTO THIGH OF BOTH HIND LIMBS (STUDY DURATION: 79 WK), Route [Inhibitor]: INTRAMUSCULAR, Strain/Sex: F344/MALE, Target Tissue: Type of Lesion: INJECTION SITE: SARCOMA, Dose [Carcinogen]: 2.5 MG PER SITE INJECTED INTO THIGH OF BOTH HIND LIMBS ONCE, Promoter: NONE USED): 100%, 95%, 5%, not significant
tumour outcome (control, treated, inhibition, significance) (Dose [Inhibitor]: 0, 30 UMOL (MG) INJECTED WITH CARCINOGEN INTO THIGH OF BOTH HIND LIMBS (STUDY DURATION: 79 WK), Route [Inhibitor]: INTRAMUSCULAR, Strain/Sex: F344/MALE, Target Tissue: Type of Lesion: INJECTION SITE: SARCOMA, Dose [Carcinogen]: 2.5 MG PER SITE INJECTED INTO THIGH OF BOTH HIND LIMBS ONCE, Promoter: NONE USED): 100%, 55%, 45%, not calculated
tumour outcome (control, treated, inhibition, significance) (Dose [Inhibitor]: 0, 60 UMOL (MG) INJECTED WITH CARCINOGEN INTO THIGH OF BOTH HIND LIMBS (STUDY DURATION: 79 WK), Route [Inhibitor]: INTRAMUSCULAR, Strain/Sex: F344/MALE, Target Tissue: Type of Lesion: INJECTION SITE: SARCOMA, Dose [Carcinogen]: 2.5 MG PER SITE INJECTED INTO THIGH OF BOTH HIND LIMBS ONCE, Promoter: NONE USED): 100%, 60%, 40%, not significant
tumour outcome (control, treated, inhibition, significance) (Dose [Inhibitor]: 0, 120 UMOL (MG) INJECTED INTO NAPE OF NECK (STUDY DURATION: 79 WK), Route [Inhibitor]: SUBCUTANEOUS, Strain/Sex: F344/MALE, Target Tissue: Type of Lesion: INJECTION SITE: SARCOMA, Dose [Carcinogen]: 2.5 MG PER SITE INJECTED INTO THIGH OF BOTH HIND LIMBS, Promoter: NONE USED): 100%, 100%, 0%, not significant
tumour outcome (control, treated, inhibition, significance) (Dose [Inhibitor]: 0, 120 UMOL (MG) INJECTED WITH CARCINOGEN INTO THIGH OF BOTH HIND LIMBS (STUDY DURATION: 79 WK), Route [Inhibitor]: INTRAMUSCULAR, Strain/Sex: F344/MALE, Target Tissue: Type of Lesion: INJECTION SITE: SARCOMA, Dose [Carcinogen]: 2.5 MG PER SITE INJECTED INTO THIGH OF BOTH HIND LIMBS, Promoter: NONE USED): 100%, 55%, 45%, not calculated
